Results taken from patent publication US9150543B2, “Substituted indolyl alkyl amino derivatives as inhibitors of histone deacetylase” (Janssen Pharmaceutica N. V., priority 2004, dated 2015).
Converted amounts (≈) assume the structure as drawn.

How the values were obtained:
[1] = system: A2780 ovarian carcinoma cells; experiment: Antiproliferative activity on A2780 cells, MTT (C.2); assay type: cell-based; conditions: Homo sapiens, 96 h, four days of incubation, read-out: Cellular activity pIC50 C.2 (converted)
Procedure: All compounds tested were dissolved in DMSO and further dilutions were made in culture medium. Final DMSO concentrations never exceeded 0.1% (v/v) in cell proliferation assays. Controls contained A2780 cells and DMSO without compound and blanks contained DMSO but no cells. MTT was dissolved at 5 mg/ml in PBS. A glycine buffer comprised of 0.1 M glycine and 0.1 M NaCl buffered to pH 10.5 with NaOH (1N) was prepared (all reagents were from Merck).
The human A2780 ovarian carcinoma cells (a kind gift from Dr. T. C. Hamilton [Fox Chase Cancer Centre, Pennsylvania, USA]) were cultured in RPMI 1640 medium supplemented with 2 mM L-glutamine, 50 μg/ml gentamicin and 10% fetal calf serum. Cells were routinely kept as monolayer cultures at 37° C. in a humidified 5% CO2 atmosphere. Cells were passaged once a week using a trypsin/EDTA solution at a split ratio of 1:40. All media and supplements were obtained from Life Technologies. Cells were free of mycoplasma contamination as determined using the Gen-Probe Mycoplasma Tissue Culture kit (supplier: BioMerieux).
Cells were seeded in NUNC™ 96-well culture plates (Supplier: Life Technologies) and allowed to adhere to the plastic overnight. Densities used for plating were 1500 cells per well in a total volume of 200 μl medium. After cell adhesion to the plates, medium was changed and drugs and/or solvents were added to a final volume of 200 μl. Following four days of incubation, medium was replaced by 200 μl fresh medium and cell density and viability was assessed using an MTT-based assay. To each well, 25 μl MTT solution was added and the cells were further incubated for 2 hours at 37° C. The medium was then carefully aspirated and the blue MTT-formazan product was solubilized by addition of 25 μl glycine buffer followed by 100 μl of DMSO. […] Within an experiment, the results for each experimental condition are the mean of 3 replicate wells. For initial screening purposes, compounds were tested at a single fixed concentration of 10^−6 M. For active compounds, the experiments were repeated to establish full concentration-response curves. For each experiment, controls (containing no drug) and a blank incubation (containing no cells or drugs) were run in parallel. The blank value was subtracted from all control and sample values. For each sample, the mean value for cell growth (in absorbance units) was expressed as a percentage of the mean value for cell growth of the control. […] Herein the effects of test compounds are expressed as pIC50 (the negative log value of the IC50-value)(see Table F-3).

[2] = molecular target: histone deacetylase (HeLa nuclear extracts); experiment: In vitro assay for inhibition of histone deacetylase with fluorescent-labelled substrate (C.1.b); assay type: biochemical; conditions: Fluor de Lys substrate
Procedure: The HDAC Fluorescent Activity Assay/Drug Discovery Kit of Biomol (cat.No: AK-500-0001) was used. The HDAC Fluorescent Activity Assay is based on the Fluor de Lys (Fluorogenic Histone deAcetylase Lysyl) substrate and developer combination. The Fluor de Lys substrate, comprises an acetylated lysine side chain. Deacetylation of the substrate sensitizes the substrate so that, in the second step, treatment with the Fluor de Lys developer produces a fluorophore.
After 30 min, 1 volume of the developer was added. […] For each experiment, controls (containing HeLa nuclear extract and buffer), a blank incubation (containing buffer but no HeLa nuclear extract) and samples (containing compound dissolved in DMSO and further diluted in buffer and HeLa nuclear extract) were run in parallel. In first instance, compounds were tested at a concentration of 10^−5M. […] All sample were tested 4 times. In each test the blank value was subtracted from both the control and the sample values. The control sample represented 100% of substrate deactylation. For each sample the fluorescence was expressed as a percentage of the mean value of the controls. […] Herein the effects of test compounds are expressed as pIC50 (the negative log value of the IC50-value) (see Table F-3).

[3] = Solubility/stability at different pH's, chemiluminescent nitrogen detector (C.3.b); assay type: physicochemical; conditions: aqueous buffer; pH = 2.3
Text: In a second method the solubility of a compound at different pH's can be measured with the use of a Chemiluminescent Nitrogen Detector (see example C.3.b).
The solubility of a compound, at different pH's, can also be measured with the use of a chemiluminescent nitrogen detector. (see Table F-3).

Compound | IC50 [1] [nM] | Enzymatic activity pIC50 C.1.b [2] | solubility [3] [µg/mL]
CCCn1cc(CCNCC2CCN(c3ncc(C(=O)NO)cn3)CC2)c2ccccc21 [Compound 31] | 39.8 | 8.2 | –
CCn1cc(CNCC2CCN(c3ncc(C(=O)NO)cn3)CC2)c2ccccc21 [Compound 34] | 31.6 | 8.4 | –
Cn1cc(CNCC2CCN(c3ncc(C(=O)NO)cn3)CC2)c2cc3c(cc21)OCO3 [Compound 59] | 20 | 9.0 | –
CCCn1cc(CNCC2CCN(c3ncc(C(=O)NO)cn3)CC2)c2cc(F)ccc21 [Compound 52] | 7.94 | 10.3 | –
CCCn1cc(CNCC2CCN(c3ncc(C(=O)NO)cn3)CC2)c2ccccc21 [Compound 62] | 10 | 9.5 | –
O=C(NO)c1cnc(N2CCC(CNCc3cn(C4CCCC4)c4ccccc34)CC2)nc1 [Compound 46] | 10 | 9.0 | –
CCC(=O)N(CCc1cn(C)c2cc(OC)ccc12)CC1CCN(c2ncc(C(=O)NO)cn2)CC1 [Compound 71] | 316 | 7.5 | –
O=C(NO)c1cnc(N2CCC(CNCc3cc4ccccc4s3)CC2)nc1 [Compound 9] | 79.4 | 8.3 | –
Cc1cccc2c1c(CNCC1CCN(c3ncc(C(=O)NO)cn3)CC1)cn2C [Compound 38] | 31.6 | >9.0 | –
Cc1[nH]c2ccccc2c1CCNC1CCN(c2ncc(C(=O)NO)cn2)CC1 [Compound 29] | 126 | 7.9 | –
O=C(NO)c1cnc(N2CCC(CNCc3c[nH]c4ccc(Br)cc34)CC2)nc1 [Compound 15] | 31.6 | 8.5 | –
O=C(NO)c1cnc(N2CCC(CNCCc3c[nH]c4ccc(Cl)cc34)CC2)nc1 [Compound 17] | 158 | 7.8 | –
Cn1cc(CNCC2CCN(c3ncc(C(=O)NO)cn3)CC2)c2c(Cl)cccc21 [Compound 58] | 1580 | 10.0 | –
Cn1cc(CNCC2CCN(c3ncc(C(=O)NO)cn3)CC2)c2cc(F)ccc21 [Compound 51] | 10 | 9.8 | –
O=C(NO)c1cnc(N2CCC(CNCc3cccc4[nH]ccc34)CC2)nc1 [Compound 64] | 15.8 | 8.9 | –
CCC(=O)N(CCc1cn(C)c2ccccc12)CC1CCN(c2ncc(C(=O)NO)cn2)CC1 [Compound 70] | 158 | 8.5 | –
Cn1cc(CNCC2CCN(c3ncc(C(=O)NO)cn3)CC2)c2ccc(F)cc21 [Compound 81] | 31.6 | 8.9 | –
Cc1ccc2[nH]cc(CNCC3CCN(c4ncc(C(=O)NO)cn4)CC3)c2c1 [Compound 12] | 79.4 | 8.2 | –
O=C(NO)c1cnc(N2CCC(CNCc3cn(CC4CC4)c4ccccc34)CC2)nc1 [Compound 48] | 6.31 | >9.0 | –
CCn1cc(CNCC2CCN(c3ncc(C(=O)NO)cn3)CC2)c2ccc(OC)cc21 [Compound 61] | 25.1 | 8.9 | –

Compound | IC50 [1] [nM] | Enzymatic activity pIC50 C.1.b [2] | solubility [3] [µg/mL]
CCN(CCc1cn(C)c2cc(OC)ccc12)CC1CCN(c2ncc(C(=O)NO)cn2)CC1 [Compound 73] | 79.4 | 7.9 | –
CCCn1cc(CCNCC2CCN(c3ncc(C(=O)NO)cn3)CC2)c2ccc(OC)cc21 [Compound 75] | 79.4 | 7.3 | –
Cc1ccc2c(c1)c(CNCC1CCN(c3ncc(C(=O)NO)cn3)CC1)c(C)n2C [Compound 42] | 31.6 | 8.3 | –
CC(=O)N(Cc1cn(C)c2ccccc12)CC1CCN(c2ncc(C(=O)NO)cn2)CC1 [Compound 72] | 158 | 7.9 | –
O=C(NO)c1cnc(N2CCC(CNCc3cn(Cc4ccccc4)c4ccccc34)CC2)nc1 [Compound 54] | 12.6 | 10.2 | –
Cc1cccc2c(CNCC3CCN(c4ncc(C(=O)NO)cn4)CC3)cn(C)c12 [Compound 37] | 31.6 | 8.6 | –
Cn1cc(CNCC2CCN(c3ncc(C(=O)NO)cn3)CC2)c2ccccc21 [Compound 1a] | 6.31 | – | 1400 (≈ 3.55 mM)
CCCn1cc(CNCC2CCN(c3ncc(C(=O)NO)cn3)CC2)c2ccc(Cl)cc21 [Compound 41] | 1580 | 8.4 | –
CCC(CC)n1cc(CNCC2CCN(c3ncc(C(=O)NO)cn3)CC2)c2ccccc21 [Compound 40] | 31.6 | 8.5 | –
O=C(NO)c1cnc(N2CCC(CNCc3cccc4cc[nH]c34)CC2)nc1 [Compound 63] | 31.6 | >9.0 | –
O=C(NO)c1cnc(N2CCC(CNCc3c[nH]c4ccc(F)cc34)CC2)nc1 [Compound 13] | 31.6 | 6.0 | –
Cn1cc(CNCC2CCN(c3ncc(C(=O)NO)cn3)CC2)c2ccc(Cl)cc21 [Compound 56] | 25.1 | 9.2 | –
COc1ccc2c(c1)c(CCNCC1CCN(c3ncc(C(=O)NO)cn3)CC1)cn2C [Compound 74] | 79.4 | 8.2 | –
Cn1cc(CNCC2CCN(c3ccc(C(=O)NO)cn3)CC2)c2ccccc21 [Compound 80] | 79.4 | 7.8 | –
CCC(=O)N(CCc1cn(C)c2ccc(Cl)cc12)CC1CCN(c2ncc(C(=O)NO)cn2)CC1 [Compound 69] | 200 | 7.6 | –
Cc1[nH]c2ccccc2c1CCNCC1CCN(c2ncc(C(=O)NO)cn2)CC1 [Compound 76] | 200 | 7.8 | –
Cn1cc(CNCC2CCN(c3ncc(C(=O)NO)cn3)CC2)c2cc([N+](=O)[O-])ccc21 [Compound 18] | 10 | 8.3 | –
Cc1[nH]c2ccccc2c1CNCC1CCN(c2ncc(C(=O)NO)cn2)CC1 [Compound 35] | 200 | 8.2 | –
CC(C)n1cc(CNCC2CCN(c3ncc(C(=O)NO)cn3)CC2)c2ccccc21 [Compound 53] | 10 | 10.0 | –
COc1ccc2[nH]cc(CNCC3CCN(c4ncc(C(=O)NO)cn4)CC3)c2c1 [Compound 16] | 79.4 | 8.6 | –
